Tests used:
[1] = system: CD19-CAR T cells / Nalm-6 cells; assay: CD19-CAR T cell generation in presence of UA and Nalm-6 killing; assay type: cell-based, human
[2] = system: AOM-induced colon tumors; assay: AOM-induced colorectal tumorigenesis, UA-containing diet; assay type: in vivo, mouse; details: FVB mice
From the text: Urolithin A containing diet (2.28 g/kg) or AIN− 93G control food (Brogaarden) were given ad libitum once introduced for experimental purpose at the indicated time. Animal experiments were approved by the Regierungsprasidium Darmstadt under animal application numbers F123/1009; F123/1062 and F123/2008.
Colorectal tumors were induced by 6 consecutive weekly injections of AOM on mice fed with food containing 2.28 g/kg Urolithin A (UA diet) or with control food. The diet was introduced one-week prior the first AOM injection and maintained until the end of the experiment at ˜20-24 weeks. The colons were collected for subsequent histological analysis as described below. For subcutaneous colorectal cancers, APTK organoids were mechanistically disrupted, incubated with Accutase to generate a single cell suspension and reconstituted in PBS 20% Matrigel (Corning) for subcutaneous transplantation. Tumor sizes were measured at the indicated time after transplantation and tumor volume quantified as ½(width2×length). Urolithin A or control food regiment were initiated either one week before tumor challenge or 11 days after tumor development. Therapeutic diets were maintained throughout the experiment unless indicated otherwise. […] CD8-depleting antibodies (InvivoMab anti-mouse CD8; Hoelzel; BE0061) or isotype controls (InvivoMab rat IgG2b isotyp; Hoelzel; BE0090) were applied every three days, starting at five days after tumor initiation. To study combination efficacy with immunotherapy, mice were injected i.p. with 100 μl nVivoMAb anti-mouse PD-1 (Hoelzel; BE0146) and InVivoMab mouse IgG2b isotype control (Hoelzel; BE0086) every 2 days, starting three days after tumor injection.
For histological analysis of colon tissue, colons were paraffin embedded using the “swiss roll” technique and serially sectioned at […]. […] AOM tumor lesion size and incidence were quantified using Aperio ImageScope software.

[3] = AOM weekly for six weeks, oral UA diet 2.28 g/kg vs control diet

## O=c1oc2cc(O)ccc2c2ccc(O)cc12 [UA, Urolithin A]
[1]
  CAR gene delivery into CD8+ cells: did not impair
[1]; 24 h co-culture
  CD19 CAR-T cell mediated killing of NALM-6 leukemia cells: did not have a negative impact
[1]; three days after transduction
  markers of exhaustion (Tim3HiPD-1Hi CD8+CAR+): not affected
[1]; three days post transduction, upon UA exposure
  CAR expressing TSCM cells as share of CD8+ cells: about 60%
[2]; [3]
  tumor incidence: significant decrease
  tumor size: significant decrease
[2]; AOM, oral UA diet 2.28 g/kg
  infiltration of CD3+ T cells into the colonic mucosa: increased infiltration

Source: patent US20240139149A1, “THERAPEUTIC USES OF UROLITHIN DERIVATIVES” (Vandria SA, priority 2022, published 2024)
